This test has as its target Methylcytosine dioxygenase TET2 (Homo sapiens) (UniProt Q6N021). The test can be described thus: Binding affinity to TET2 (unknown origin) assessed as binding constant.

The text below walks through data of ChEMBL document CHEMBL6096735, “Exploring the Ascorbate Requirement of the 2-Oxoglutarate-Dependent Dioxygenases” (J Med Chem, 2025).

Each structure is given as a SMILES string.

Turning to `O=C1O[C@H]([C@H](O)CO)C(O)=C1O`, the Kb is 8.7 10^3/M.
`O=C1O[C@H]([C@@H](O)CO)C(O)=C1O`: the Kb is 8.7 10^3/M.
